Experiments:
[1] = target: T1, AgORco+AgOR10 (Anopheles gambiae, UniProt Q7QCC7); test: Whole-cell patch clamp, HEK293 cells expressing AgORco+AgOR10; format: cell-based
T1 construct: expressed in transfected cells
T1 sequence (Q7QCC7 1-478): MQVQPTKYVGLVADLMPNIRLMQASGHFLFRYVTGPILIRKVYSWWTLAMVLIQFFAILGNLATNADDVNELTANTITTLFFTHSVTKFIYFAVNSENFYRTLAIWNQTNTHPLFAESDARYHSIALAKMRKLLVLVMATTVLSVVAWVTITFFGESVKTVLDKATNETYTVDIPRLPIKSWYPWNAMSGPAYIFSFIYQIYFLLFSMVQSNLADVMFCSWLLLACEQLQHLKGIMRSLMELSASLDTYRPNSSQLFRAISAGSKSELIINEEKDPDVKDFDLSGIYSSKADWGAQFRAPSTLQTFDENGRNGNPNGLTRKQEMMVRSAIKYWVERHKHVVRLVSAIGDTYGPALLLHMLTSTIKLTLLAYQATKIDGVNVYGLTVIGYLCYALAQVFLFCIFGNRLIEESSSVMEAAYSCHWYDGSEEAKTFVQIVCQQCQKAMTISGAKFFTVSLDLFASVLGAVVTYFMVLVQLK
Method: (§1) Currents from OR-expressing HEK293 cells were amplified with an Axopatch 200b Amplifier (Axon Instruments) and digitized through a Digidata 1322A (Axon Instruments). Electrophysiological data was recorded and analyzed using pCLAMP 10 (Axon Instruments). Electrodes were fabricated from quartz tubing (Sutter Instruments) and pulled to 4-6 MiΩ for whole cell recording. Electrodes were filled with internal solution (120 mM KCl, 30 mM D-glucose, 10 mM HEPES, 2 mM MgCl2, 1.1 mM EGTA, and 0.1 CaCl2) (pH 7.35, 280 mOsm). External (bath) solution contained 130 mM NaCl, 34 mM D-glucose, 10 mM HEPES, 1.5 mM CaCl2), 1.3 mM KH2PO4, and 0.5 MgSO4 (pH 7.35, 300 mOsm). Compounds were diluted in external solution and locally perfused to the recording cell using Perfusion Pencil (Automate Scientific) and controlled by a ValveLink 8.2 controller (Automate Scientific). Whole cell recordings were sampled at 10 kHz and filtered at 5 kHz. Outside-out patches were obtained using 10-15MΩ electrodes pulled from standard glass capillaries (World Precision Instruments) and fire-polished with an MF-830 micro forge (Narishige). Single channel recordings were sampled at 20 kHz. Recordings were reduced to 1 kHz and low-pass filtered at 500 Hz for display and analysis using QuB (SUNY at Buffalo).
To test the hypothesis that VUAA1 directly agonized AgORco, whole-cell patch clamp responses were examined in AgORco+AgOR10 expressing cells as well as HEK293 cells stably expressing AgORco alone. […] The VUAA1-dependent currents in AgORco+AgOR10 cells resembled those resulting from application of benzaldehyde, an orthosteric agonist of AgOR10 (FIG. 3C) (Wang, 2010; Carey, 2010). […] To investigate the specificity of VUAA1 agonism, the inventors transiently transfected HEK cells with the AgORco orthologs of Drosophila melanogaster and Heliothis virescens, DmORco and HvOR2 respectively.

[2] = target: T2, AgORco (Anopheles gambiae, UniProt Q7QCC7); test: Single-channel recording, outside-out patches from AgORco-expressing HEK293 cells; format: biochemical
T2 construct: expressed in transfected cells
T2 sequence (Q7QCC7 1-478): T1 sequence (Q7QCC7 1-478)
Method: as §1, with “Buffalo). […]” for “Buffalo).”

[3] = tested on: An. gambiae early 4th instar larvae; test: Larval mosquito movement assay (Daniovision-Ethovision); format: in vivo, Anopheles gambiae
Method: Next, the agonist activity of the VUAA compound class was tested to establish the involvement of AgORs in mediating larval ortho and klinokinesis in response to a series of semiochemicals using larval-stage An. gambiae mosquitoes. Mosquito larvae are aquatic, thus compounds can be delivered to individual early 4th instar larvae regardless of volatility. The assay currently utilizes 6-well plates and the Daniovision-Ethovision platform (Noldus Inc.) to simultaneously record and analyze 6 larvae, thereby providing modest rates of throughput and a high degree of reproducibility. In these assays, larval movements are automatically quantified over 5-minute period and control larvae consistently move the same number of times in the presence or absence of 0.1% DMSO (p=0.80, n=31) (FIGS. 42-43). Furthermore, the effects of the widely-used synthetic insect repellent N, N-diethyl-meta-toluamide (DEET) was tested and DEET was also observed to increase larval movements at and above a threshold concentration of 5×10^−4M (p=0.013, n=27) (FIGS. 42-43).

CCc1ccc(NC(=O)CSc2nnc(-c3cccnc3)n2CC)cc1 [VUAA1, 2-((4-ethyl-5-(pyridin-3-yl)-4H-1,2,4-triazol-3-yl)thio)-N-(4-ethylphenyl)acetamide]
whole-cell current response ([1]; AgORco+AgOR10 cells, holding potential −60 mV): concentration-dependent inward currents | reversal potential of agonist-induced current ([1]; AgORco+AgOR10 complexes, mean s.e.m.): −4.8±3.0 mV | whole-cell current response at −5.0 log M ([1]; −5.0 log M): inward currents | average unitary current of AgORco ([2]; VUAA1-evoked, mean±st. dev.): 1.3±0.3 pA | channel opening probability P0 ([2]; during 5 s application of −4.0 log M VUAA1, patch held at −60 mV): 0.38 | larval movements at higher concentration ([3]; 5×10^−5M): larval movements were observed to decrease | larval response in AgOrco siRNA-treated larvae ([3]; AgOrco siRNAs injected 48 h before, vs buffer-injected control): no longer responsive | increase over the response threshold of DEET ([3]; in vivo): 5 orders of magnitude | threshold concentration for increased larval movement ([3]; movements over 5-minute period): 5 nM
